{"source": "patent US8080404B1", "about": "“Enzymatic decontamination” (priority 2005, dated 2011)", "tested_on": "Bacillus anthracis NNR1Δ1 spores", "assay_type": "cell-based"}
{"molecule": "CCCCCCCCCCCC[N+](C)(C)CCCS(=O)(=O)[O-]", "note": "[3-(dodecyldimethylamino) propane sulfonate]", "values": [{"measurement": "promotion of spore killing by zwitterionic surfactant", "result": "most efficient at promoting spore killing"}]}
{"molecule": "CC(=O)Oc1ccccc1C(=O)O", "note": "[acetylsalicylic acid]", "values": [{"measurement": "efficiency of spore killing with acetyl donor", "result": "increasing concentrations of acetylsalicylic acid resulted in increased efficiency of spore killing"}]}
{"molecule": "CC(=O)O", "note": "[acetic acid]", "values": [{"measurement": "kill rate with acetyl donor", "result": "enhanced the kill rate to about the same degree as did 0.125% acetylsalicylic acid"}]}
{"molecule": "octyl phenol ethoxylate [triton X-100]", "values": [{"measurement": "spore kill efficiency with surfactant", "result": "most efficient formulation for spore inactivation"}]}
